Several values for one entry are separate records, joined by “and”; a condition that tells them apart may be missing. Equal entries are not always repeated.
Target: Gamma-aminobutyric acid receptor subunit alpha-5 (Rattus norvegicus, UniProt P19969)
Sequence (P19969 whole entry): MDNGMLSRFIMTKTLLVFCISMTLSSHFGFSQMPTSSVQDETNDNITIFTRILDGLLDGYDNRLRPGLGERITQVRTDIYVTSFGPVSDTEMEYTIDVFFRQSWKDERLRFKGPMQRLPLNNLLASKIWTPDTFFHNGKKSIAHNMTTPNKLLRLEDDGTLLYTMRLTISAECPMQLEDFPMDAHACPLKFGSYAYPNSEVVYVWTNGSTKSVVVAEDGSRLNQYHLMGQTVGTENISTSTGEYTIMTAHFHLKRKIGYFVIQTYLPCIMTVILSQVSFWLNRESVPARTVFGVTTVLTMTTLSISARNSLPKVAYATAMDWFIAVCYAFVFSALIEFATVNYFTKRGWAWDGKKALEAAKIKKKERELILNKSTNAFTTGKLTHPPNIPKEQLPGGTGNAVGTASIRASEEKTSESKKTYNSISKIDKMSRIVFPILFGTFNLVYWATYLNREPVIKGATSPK

Q: With Cc1nnc2ccc(-c3cccc(C(F)(F)F)c3)nn12 as the compound, how does the Ki read?
A: 333 nM and 127 nM and 157 nM and 447 nM
